Here are results for two molecules from patent US20080146555A1, “Uses of Kinase Inhibitors and Compositions Thereof” (GPC Biotech, Inc, priority 2004, published 2008).

One assay addresses T1, Abl T315I (Homo sapiens, UniProt P00519, T315I).
T1 construct: purchased Upstate 14-522
In words: Abl T315I kinase assay. Format: biochemical. How it is done:
• 1. 5× Reaction Buffer: 40 mM MOPS, pH 7.0, 1 mM EDTA. • 2. Enzyme Dilution Buffer (EDB): 20 mM MOPS, pH 7.0, 1 mM EDTA, 0.01% Brij-35, 5% glycerol, 0.1% β-mercaptoethanol, 1 mg/ml BSA. • 3. […] Use 2.5 μl per assay point. • 4. […] Use 2.5 μl per assay point for a final assay concentration of 50 μM per assay point. • 5. [γ-^32P]ATP: Stock 1 mCi/100 μl (3000 Ci/mmol, obtained from PerkinElmer, Cat. # BLU002A). Make 10 μl aliquots (100 μCi/vial).
• 1. Add 5 μl of 5× Reaction Buffer per assay. • 2. Add 2.5 μl of Abltide (50 μM). • 3. […] Add 5 μl sterile, distilled water. • 5. Add 10 μl of the diluted [γ-^32P]ATP solution. • 6. Incubate for 10 minutes at 30° C. • 7. Transfer a 20 μl aliquot onto the center of a 2 cm×2 cm P81 paper. • 8. […] Wash the assay squares once for 5 minutes with acetone. • 10. Transfer the assay squares to vial and add 5 ml scintillation cocktail. • 11. Read in scintillation counter. Compare cpm of enzyme samples to cpm of control samples that contain background control.

Another assay relates to cells. The experiment in a line: Apoptosis detection (TUNEL staining, PARP cleavage). Format: cell-based. Conditions: 72 hours at 5× of the IC50 concentration. How it is done:
In addition, PARP cleavage was also observed. Similarly, cells incubated with B16 are 90% TUNEL positive. Such assays can be used for apoptosis detection in any cells in contact with the subject compounds.

For another assay, the system named is NCI-Adr resistant. In words: SRB cytotoxicity, P-glycoprotein expressing cells with and without verapamil. Format: cell-based. Conditions: for IC50: Homo sapiens, NCI/ADR-RES, 72 h, SRB; for relative resistance, NCI-Adr resistant −/+ verapamil: individual experiments; for RR (relative resistance) NCI-Adr resistant −/+ verapamil: ratio of mean IC50. How it is done:
In these experiments, the P-glycoprotein expressing NCI-Adr resistant subline (Vickers et al., 1989. Mol Endocrinology 3 (1):157-164) was used. […] Briefly, cells were plated in 96 well dishes 24 hours prior to compound addition. Where noted, they were exposed to verapamil for 4 hours prior to compound addition and then throughout the treatment period (72 hours). The assay was terminated with the addition of cold TCA to a final concentration of 10% and the plates were incubated for one hour at 4° C. The plates were then washed 5 times with water and 100 μl of a Sulforhodamine B solution (4%) was added to each well. The plate was then incubated for 10 minutes at room temperature before removal of unbound dye by washing with 1% acetic acid.

The next assay addresses T2, AMPK.
T2 construct: purified from rat-human # = U06454
In words: AMPK kinase assay. The assay is classed as biochemical, rat. How it is done:
• 1. AMPK Reaction Buffer: 20 mM HEPES-NaOH, pH 7.0, 0.4 mM dithiothreitol, 0.01% Brij-35, with or without 300 μM AMP. • 2. SAMS Substrate Peptide (Catalog #12-355): Use 7 μl per reaction for final assay concentration of 100 μM. • 3. AMP-Activated Protein Kinase: Dilute enzyme to 2-10 mU/μl in AMPK Reaction Buffer with or without 300 μM AMP. AMP can be purchased from Sigma-Aldrich, Catalog #A1752. • 4. [γ-^32P]ATP: Stock 1 mCi/100 μl (3000 Ci/mmol, obtained from PerkinElmer, Cat. # BLU002A). Make 10 μl aliquots (100 μCi/vial). […]
• NOTE: Negative controls should be run with all reagents containing no AMP. • 1. Add 13 μl of Reaction Buffer per assay. • 2. Add 7 μl of SAMS substrate peptide [100 μM final assay concentration]. • 3. Add 10 μl of AMP-Activated Protein Kinase [20-100 mU]. • 4. Add 10 μl of the diluted [^32P]ATP mixture. • 5. Incubate for 15 minutes at 30° C. in a shaking incubator. • 6. Spot 35 μl onto the center of a 2 cm×2 cm P81 paper square. • 7. Wash the assay squares three times with 0.75% phosphoric acid for 5 minutes. • 8. Wash the assay squares once with acetone for 5 minutes. • 9. Transfer the assay squares to vial and add 5 ml scintillation cocktail. • 10. Read in scintillation counter. Compare cpm of enzyme samples to cpm of control samples that contain no enzyme (background control).

A further assay deals with A2780. In words: Calcein AM viability assay, A2780. Conditions: Homo sapiens. The assay is classed as cell-based. How it is done:
Analogous cell viability assays against other cell lines were conducted as above. […] Protocol for the Calcein AM viability assay.
HCT-116 or IMR90 cells were recovered from sub-confluent plates by trypsinization and 1,000 or 4,000 cells, respectively, were plated in 24-well dishes and incubated overnight at 37° C., 5% CO2. HCT-116 cells were cultured in RPMI-1640, 10% FCS, and IMR90 cells were cultured in Minimum Essential Medium-alpha, 10% FCS. After overnight incubation to allow adherence, the media was aspirated from each well and replaced with media containing a test compound at a concentration from 0 to 250 nM, spanning a total of 7 doses. The plates were returned to the incubator and cultured for an additional 72 hours (3 days). […] After 72-hours incubation with the test compound, the cells were washed twice with 1×PBS, taking special care to remove all residual buffer.
A 5 μM Calcein AM solution was prepared by dissolving a 50 μg aliquot of Calcein (Molecular Probes catalog #C3100) in 50 μl DMSO. After the Calcein had completely dissolved (10 minutes at room temperature), it was diluted into 10 ml PBS. Calcein/PBS (0.5 ml) was added to each well. The plates were incubated for 75 minutes at 37° C. (protected from light) and the fluorescent signal was read on a fluorescent plate reader (excitation 485/20 and emission 530/25).

Setting [1] is: read-out: Inhibition (IC50), Table II (accession U07563, no symbol).
Where [2] appears, read: enzyme purified from rat, read-out: PRKAA2 (AMPK) Inhibition (IC50).

Molecules are shown by their SMILES. Where a name gives a salt, the structure may show the parent alone. Read-outs that look alike come from different tables or passages of the source.

As a reminder, the IC50 is the point on the concentration scale where inhibition reaches its midpoint. For the molecule `CC(C)N1CCN(C(=O)COc2ccc(-c3n[nH]c4c3C(=O)c3c(NC(=O)NN5CCOCC5)cccc3-4)cc2)CC1` [Compound A37], the IC50 at Abl T315I (read-out: Abl T315I IC50) was 87 nM; at Abl T315I (setting [1]) it was below 100 nM; in the assay with NCI-Adr resistant (verapamil 12.5 μg/ml) it was 135 nM; in the assay with NCI-Adr resistant (without verapamil), 3430 nM; on AMPK (setting [2]) it was below 100 nM; in the assay with A2780, below 10 nM. The PARP cleavage result in the assay on cells was “observed”. For the same molecule, the TUNEL positive cells entry with cells is listed as “about 60%”. Besides, the “relative resistance, NCI-Adr resistant −/+ verapamil” value with NCI-Adr resistant is “about 25 fold”. In addition, the “RR (relative resistance) NCI-Adr resistant −/+ verapamil” value in the assay with NCI-Adr resistant stood at 25.4.

Regarding `COCCN1CCN(Cc2ccc(-c3n[nH]c4c3C(=O)c3c(NC(=O)NN5CCOCC5)cccc3-4)cc2)CC1` [Compound B16, N-[3-(4-{[4-(2-methoxyethyl)piperazinyl]methyl}phenyl)-4-oxoindeno[2,3-d]pyrazol-5-yl](morpholin-4-ylamino)carboxamide dihydrochloride], the IC50 at Abl T315I (read-out: Abl T315I IC50) was around 100 nM; on Abl T315I (setting [1]) it was below 100 nM; in the assay with NCI-Adr resistant (verapamil 12.5 μg/ml), 80 nM; with NCI-Adr resistant (without verapamil), 1870 nM; at AMPK (setting [2]), below 50 nM; at AMPK (kinase panel, 10 μM ATP, read-out: AMPK IC50) it was below 100 nM. The IC50 in the assay with A2780 was below 10 nM. In the assay with cells, the TUNEL positive cells was found to be 90%. The “relative resistance, NCI-Adr resistant −/+ verapamil” value in the assay with NCI-Adr resistant is recorded as “about 25 fold”. Moreover, the “RR (relative resistance) NCI-Adr resistant −/+ verapamil” value with NCI-Adr resistant is 23.4.
